Test results reported in patent US8232248B2, “Treatment of rheumatoid arthritis with mammal beta defensins” (Novozymes Adenium Biotech A/S, priority 2008, dated 2012).

Legend:
[1] = tested on: TNF production from human peripheral blood mononuclear cells (PBMC); assay: TNF production from PBMC stimulated with LPS, LTA, PGN or Pam3CSK4, 24 h, Cytometric Bead Array; type: cell-based; details: Table 18; for TNF: Medium, non-treated 1
Experimental: (§1) Peripheral blood was drawn from healthy volunteers (with approval from the relevant ethical committee in Denmark). Heparinized blood was diluted 1/1 v/v with RPMI and were subjected to Ficoll density centrifugation within 2 h of drawing. Plasma was collected from the top from individual donors and was kept on ice until it was used at 2% in the culture medium (autologous culture medium). Isolated PBMC were resuspended in autologous culture medium and seeded in 96-well culture plates with 255.000 cells per well in a total of 200 μl. […] The concentrations used for stimulation were optimized on 3 different donors in initial experiments, for LPS two different concentrations were used to be sure to be on a cytokine level that is possible to modulate. In some experiments PBMC were treated with Dexamethason and Indomethacin alone and together with LPS or LTA as a control on downregulation of inflammatory cytokines. The supernatants were collected after incubation at 37° C. for 24 hours, and stored at −80° C. until cytokine measurement. Viability was measured by Alamar Blue (Biosource, DALL 1100) in all experiments and in some cases also by MTS (Promega) according to manufacturer's instruction and was in some experiments also judged by counting of the cells by a Nucleocounter.
(§2) Cytokine production in supernatants was measured by flow cytometry with a human inflammation cytometric bead array (CBA) according to manufacturer's instructions (BD) on a FACSarray flow cytometer. The following cytokines were measured: IL-8, IL-1β, IL-10, TNF, IL-12 p70, IL-6. In some experiments, cytokines were measured by ELISA kits from R&D systems (IL-10, TNF-α, IL-1β) according to the manufacturer' instruction.
(§3) All experiments were performed at least twice, with representative results shown. The data presented are expressed as mean plus/minus standard deviation (SD). […] Differences were considered significant for p<0.05.
Example 3 was carried out essentially as described in Example 2. […]

[2] = tested on: IL-1β production from human peripheral blood mononuclear cells (PBMC); assay: IL-1β production from PBMC stimulated with LPS or LTA, 24 h, Cytometric Bead Array; type: cell-based; details: Table 20
Experimental: as §1, §2, §3

[3] = tested on: IL-10 production from human peripheral blood mononuclear cells (PBMC); assay: IL-10 production from PBMC stimulated with LPS, LTA or PGN, 24 h, Cytometric Bead Array; type: cell-based; details: Table 19
Experimental: as §1, §2, §3

PBMC = PBMC viability, Alamar Blue; type: cell-based, human; details: 40 μg/ml
Experimental: as §1

[4] = test compound 1 μg/ml, LPS 0.6 ng/ml
[5] = test compound 1 μg/ml, LPS 20 ng/ml
[6] = test compound 10 μg/ml, LPS 0.6 ng/ml
[7] = test compound 10 μg/ml, LPS 20 ng/ml
[8] = test compound 1 μg/ml, Medium, non-treated 0
[9] = test compound 10 μg/ml, Medium, non-treated 0

In the case of “hBD4 variant: consists of amino acids 3-39 of hBD4, SEQ ID NO:5 (ELDRICGYGTARCRKKCRSQEYRIGRCPNTYACCLRK; hBD-4 variant consisting of amino acids 3-39 of SEQ ID NO4)”, the “TNF % of control” value [1, 4] was 64%, the “TNF % of control” value [1, 5] was 36% and the TNF ([1]; test compound 1 μg/ml) was 0 pg/mL. For the same substance, the “TNF % of control” value [1, 6] was 29%, the “TNF % of control” value [1, 7] was 6% and the TNF ([1]; test compound 10 μg/ml) was 0 pg/mL. The “IL-1β % of control” value [2, 4] was 39%, the IL-1β ([2]; test compound 1 μg/ml, LPS 0.6 ng/ml, non-treated 741) was 286 pg/mL and the “IL-1β % of control” value [2, 5] was 40%. For the same substance, the IL-1β ([2]; test compound 1 μg/ml, LPS 20 ng/ml, non-treated 2544) was 1004 pg/mL, the IL-1β [2, 8] was 0 pg/mL and the “IL-1β % of control” value [2, 6] was 22%. For the same substance, the IL-1β ([2]; test compound 10 μg/ml, LPS 0.6 ng/ml, non-treated 741) was 163 pg/mL, the “IL-1β % of control” value [2, 7] was 18% and the IL-1β ([2]; test compound 10 μg/ml, LPS 20 ng/ml, non-treated 2544) was 463 pg/mL. For the same substance, the IL-1β [2, 9] was 0 pg/mL, the “Secretion of IL-10” value ([3]; PBMC with LPS) was “significantly and dose-dependently enhanced” and the IL-10 ([3]; test compound 1 μg/ml, LPS 0.6 ng/ml, non-treated 66) was 90 pg/mL. For the same substance, the IL-10 [3, 8] was 0 pg/mL, the IL-10 ([3]; test compound 10 μg/ml, LPS 0.6 ng/ml, non-treated 66) was 92 pg/mL and the IL-10 [3, 9] was 0 pg/mL. The “Toxicity to the cells” value (PBMC) was “toxic to the cells”.
